Experimental data published in patent publication US10543185B2, “Method for treating idiopathic pulmonary fibrosis” (The University of Chicago, priority 2015, dated 2020).
Entries after “also recorded” stand apart in the source; their conditions may differ.

Legend:
[1] = tested on: patients with idiopathic pulmonary fibrosis (IPF); experiment: Independent replication cohort (INSPIRE trial and University of Chicago): NAC versus no NAC therapy, genotype-stratified; assay type: in vivo, human; conditions: for Replication cohort multivariate Cox interaction model coefficient, NAC Therapy term: FVC, DLCO, prednisone use, azathioprine use and study cohort; for Replication cohort multivariate Cox interaction model coefficient, SNP*NAC interaction term: adjusted as in the Table 9 footnote; for Genotype-stratified Composite Endpoint Risk Associated with NAC Therapy, HR: vs no NAC therapy
Description: The INSPIRE cohort consists of individuals enrolled in the industry-sponsored randomized clinical trial comparing interferon gamma-1b to placebo. […] Clinical and genetic data for patients providing informed consent to genetic testing were used to conduct the analysis. Patients were followed for up to 170 weeks after randomization.
The University of Chicago (UChicago) cohort consists of individuals followed in the UChicago ILD clinic from 2007-2013 who provided informed consent to undergo DNA testing. Patients were followed from time of initial evaluation until death, lung transplantation, loss-to-follow up or time of censoring (Sep. 9, 2013). Vital status was determined using telephone interviews with family members and the social security death index. Patients participating in PANTHER and INSPIRE were removed from the UC cohort.
(§1) To minimize the effects of population stratification, only participants that self-declared a non-Hispanic white ethnicity were included in the analysis. Demographic and clinical information extracted from the datasets included age, gender, race/ethnicity, treatment arm, pulmonary function testing (PFT) including forced vital capacity (FVC) and diffusion capacity for carbon monoxide (DLCO) and outcomes, including death, >10% decline in FVC, hospitalization and lung transplantation.
Hospitalization data were not available for patients in the replication cohort so composite endpoint-free survival was defined as time from trial enrollment (INSPIRE) or blood draw (UChicago) to death, ≥10% FVC decline or transplantation in those not receiving NAC therapy and time from NAC initiation to death, >10% FVC decline or transplantation in those receiving NAC therapy. Because follow-up time was longer for the UChicago compared to INSPIRE cohort, UChicago cohort survival time was censored at 170 weeks to allow for merging of the datasets. All statistical analysis was conducted using Stata (StataCorp. 2011. Release 12. College Station, Tex.).
Based on the findings above, interaction modeling was performed in an independent cohort between NAC therapy and rs3750920 (TOLLIP), rs5743894 (TOLLIP) and rs35705950 (MUC5B). Of the 771 non-Hispanic white individuals enrolled in the INSPIRE trial, DNA was available for 314. In the UChicago cohort, of 151 non-Hispanic white individuals with sequencing data, 91 had longitudinal PFT data and were included in the analysis. A summary of baseline demographic and clinical characteristics, along with genotype counts for the INSPIRE, UChicago and combined cohorts are shown in Table 8.

[2] = tested on: patients with idiopathic pulmonary fibrosis (IPF); conditions: previous reports (Martinez et al., N Engl J Med. 2014); cited from earlier work
[3] = tested on: patients with idiopathic pulmonary fibrosis (IPF); experiment: PANTHER-IPF clinical trial cohort: secondary genotype-stratified survival analysis, NAC or PAN versus placebo; assay type: in vivo, human; conditions: for Composite Endpoint, %: 10% FVC decline, hospitalization or transplantation; for Treatment-Specific Composite Endpoint Risk, HR / Multivariable Cox interaction model coefficient, therapy term / Multivariable Cox interaction model coefficient, SNP*therapy interaction term: adjusted for age, gender; for Treatment-Specific Composite Endpoint Risk, HR: FVC (% predicted) and DLCO (% predicted); for Multivariable Cox interaction model coefficient, therapy term / Multivariable Cox interaction model coefficient, SNP*therapy interaction term: composite endpoint-free survival, FVC and DLCO; for Progression-Free Survival HR (95% CI) / Hospitalization-Free Survival HR (95% CI): NAC vs placebo
Description: Single nucleotide polymorphisms (SNPs) within TOLLIP and MUC5B are associated with idiopathic pulmonary fibrosis (IPF) susceptibility and survival. Both genes play critical roles in lung host defense, a process that can be influenced by oxidative stress and modulated by N-acetylcysteine (NAC). Applicants set out to determine whether SNPs within TOLLIP and MUC5B modify the efficacy of NAC therapy in patients with IPF. To achieve this, secondary analysis was completed of the PANTHER-IPF clinical trial (n=154) and an independent replication cohort (n=405) composed of patients from the INSPIRE clinical trial and University of Chicago. SNPs within TOLLIP (rs5743890/rs5743894/rs5743854/rs3750920) and MUC5B ([…]) were genotyped. Multivariable Cox regression with interaction analysis was performed followed by genotype-stratified models for significant interaction SNPs to determine genotype-specific survival associated with NAC therapy. A composite endpoint of death, FVC decline, hospitalization or transplantation was used.
The PANTHER cohort consists of individuals enrolled in the IPFnet randomized clinical trial comparing three treatments: prednisone/azathioprine/N-acetylcysteine (PAN) combination therapy, N-acetylcysteine (NAC) monotherapy and placebo. […] Enrollment resumed for the NAC and placebo arms from January to July 2012, with study completion in 2013. Clinical and genetic data for patients providing informed consent to genetic testing were used to conduct the analysis. Patients were followed for up to 72 weeks after randomization.
as §1
The primary analysis tested whether statistical interaction was present between SNPs of interest and NAC therapy with regard to composite endpoint-free survival, defined as time from trial enrollment to death, ≥10% FVC decline, hospitalization or transplantation. Interaction was formally tested with a multivariable Cox regression model that included the following variables: SNP genotype, NAC therapy, and a SNP*NAC interaction term, age, gender, FVC (% predicted) and DLCO (% predicted). Statistical interaction was considered present when the Wald z-statistic for SNP*NAC interaction term corresponded to a p-value <0.01, which adjusts for multiple testing by Bonferroni correction. Interaction detected by this method was then further explored by constructing genotype-stratified multivariable Cox models to determine genotype-specific endpoint risk associated with NAC therapy. Based on SNP distributions, an additive allelic model was assumed for rs3750920 (TOLLIP) and a dominant model for rs5743890 (TOLLIP), rs5743894 (TOLLIP), rs5743854 (TOLLIP) and rs35705950 (MUC5B). Each model was checked to ensure that the proportional hazards assumption was met.
Of the 341 patients enrolled in the PANTHER trial, 315 self-reported a non-Hispanic white ethnicity (FIG. 2). Of those 315 individuals, 154 consented to genetic testing and were included in the primary analysis. Among genotyped patients, fifty-four patients received placebo therapy and […] patients received NAC therapy. Baseline demographic and clinical characteristics between non-Hispanic white genotyped (n=154) and non-genotyped (n=161) patients stratified by treatment group are shown in Table 1. […]

[4] = tested on: patients with idiopathic pulmonary fibrosis (IPF); conditions: trial stopped early; cited from earlier work
[5] = INSPIRE cohort, NAC recipients (n = 29)
[6] = UChicago cohort, NAC recipients (n = 18)
[7] = combined replication cohort, NAC recipients (n = 47)
[8] = PANTHER genotyped patients, NAC arm (n = 60)
[9] = PANTHER non-genotyped patients, NAC arm (n = 61)

## CC(=O)N[C@@H](CS)C(=O)O [NAC, (2R)-2-acetamido-3-sulfanylpropanoic acid]
[1]; [5]
  Composite Endpoint, %: (48.3) %
  Death, %: (20.7) %
  FVC Decline ≥10%, %: (44.8) %
  Transplant, %: (6.9) %
[1]; [6]
  Composite Endpoint, %: (72.2) %
  Death, %: (72.2) %
  FVC Decline ≥10%, %: (22.2) %
  Transplant, %: (0) %
[1]; [7]
  Composite Endpoint, %: (57.5) %
  FVC Decline ≥10%, %: (36.2) %
  Transplant, %: (4.3) %
[1]; model with rs3750920 (TOLLIP), adjusted for age, gender
  Replication cohort multivariate Cox interaction model coefficient, NAC Therapy term: 1.37
[1]; model with rs5743894 (TOLLIP), term printed as rs3750920*NAC interaction
  Replication cohort multivariate Cox interaction model coefficient, SNP*NAC interaction term: −0.40
[1]; model with rs5743894 (TOLLIP), adjusted for age, gender
  Replication cohort multivariate Cox interaction model coefficient, NAC Therapy term: 0.54
[1]; model with rs35705950 (MUC5B), adjusted for age, gender
  Replication cohort multivariate Cox interaction model coefficient, NAC Therapy term: 1.24
[1]; replication cohort, FIG. 3, p=0.03
  Unadjusted Kaplan-Meier survival among NAC recipients, rs3750920 TT genotype versus CC or CT genotype: significantly better overall survival
[1]; replication cohort, rs3750920 (TOLLIP) CC, adjusted for age, gender, FVC and DLCO
  Genotype-stratified Composite Endpoint Risk Associated with NAC Therapy, HR: 3.51
[1]; replication cohort, rs3750920 (TOLLIP) CT
  Genotype-stratified Composite Endpoint Risk Associated with NAC Therapy, HR: 2.27
[1]; replication cohort, rs3750920 (TOLLIP) TT
  Genotype-stratified Composite Endpoint Risk Associated with NAC Therapy, HR: 0.23
[1]; replication cohort, rs35705950 (MUC5B) GG
  Genotype-stratified Composite Endpoint Risk Associated with NAC Therapy, HR: 3.15
[1]; replication cohort, rs35705950 (MUC5B) GT/TT
  Genotype-stratified Composite Endpoint Risk Associated with NAC Therapy, HR: 0.94
[1]; rs3750920 (TOLLIP) interaction
  Replication cohort multivariate Cox interaction model coefficient, SNP*NAC interaction term: −0.86
[1]; rs35705950 (MUC5B) interaction
  Replication cohort multivariate Cox interaction model coefficient, SNP*NAC interaction term: −1.30
[2]
  Benefit of therapy in patients with IPF, unselected by genotype: no benefit; also recorded: did not provide benefit; also recorded: ineffective
[3]; [8]
  Death, %: (1.7) %
  FVC Decline ≥10%, %: (18.3) %
  Hospitalization, %: (13.3) %
  Transplant, %: (5) %
[3]; PANTHER genotyped patients, NAC arm (n = 60), death
  Composite Endpoint, %: (31.7) %
[3]; [9]
  Death, %: (4.9) %
  FVC Decline ≥10%, %: (27.9) %
  Hospitalization, %: (14.8) %
  Transplant, %: (1.6) %
[3]; PANTHER non-genotyped patients, NAC arm (n = 61), death
  Composite Endpoint, %: (42.6) %
[3]; genotyped PANTHER patients
  Treatment-Specific Composite Endpoint Risk, HR: 0.92
[3]; model with rs3750920 (TOLLIP)
  Multivariable Cox interaction model coefficient, therapy term: 1.34
[3]; model with rs5743890 (TOLLIP)
  Multivariable Cox interaction model coefficient, therapy term: 0.17
[3]; model with rs5743894 (TOLLIP)
  Multivariable Cox interaction model coefficient, therapy term: 0.45
[3]; model with rs35705950 (MUC5B)
  Multivariable Cox interaction model coefficient, therapy term: 0.91
[3]; non-genotyped PANTHER patients
  Treatment-Specific Composite Endpoint Risk, HR: 1.31
[3]; rs3750920 (TOLLIP) CC genotype, death, 10% FVC decline or transplant
  Progression-Free Survival HR (95% CI): 1.27 (0.21-7.55)
[3]; rs3750920 (TOLLIP) CC genotype, death, hospitalization or transplant
  Hospitalization-Free Survival HR (95% CI): 3.74 (0.35-39.80)
[3]; rs3750920 (TOLLIP) CT genotype
  Hospitalization-Free Survival HR (95% CI): 0.45 (0.10-2.15)
  Progression-Free Survival HR (95% CI): 0.63 (0.17-2.30)
[3]; rs3750920 (TOLLIP) TT genotype
  Progression-Free Survival HR (95% CI): 0.09 (0.01-0.76)
[3]; rs3750920 (TOLLIP) interaction
  Multivariable Cox interaction model coefficient, SNP*therapy interaction term: −1.47
[3]; rs5743890 (TOLLIP) interaction
  Multivariable Cox interaction model coefficient, SNP*therapy interaction term: −1.17
[3]; rs5743894 (TOLLIP) AA genotype
  Hospitalization-Free Survival HR (95% CI): 1.43 (0.44-4.70)
  Progression-Free Survival HR (95% CI): 1.68 (0.58-4.90)
[3]; rs5743894 (TOLLIP) AG/GG genotype
  Hospitalization-Free Survival HR (95% CI): 0.21 (0.02-1.99)
[3]; rs5743894 (TOLLIP) interaction
  Multivariable Cox interaction model coefficient, SNP*therapy interaction term: −1.42
[3]; rs35705950 (MUC5B) GG genotype
  Hospitalization-Free Survival HR (95% CI): 1.25 (0.15-10.30)
  Progression-Free Survival HR (95% CI): 3.72 (0.69-20.16)
[3]; rs35705950 (MUC5B) GG/TT genotype as printed in Table 7 (text: GT or TT)
  Hospitalization-Free Survival HR (95% CI): 0.49 (0.15-1.58)
[3]; rs35705950 (MUC5B) interaction
  Multivariable Cox interaction model coefficient, SNP*therapy interaction term: −1.40

B1: interferon gamma-1b: study drug of the INSPIRE randomized clinical trial, compared to placebo (protein, UniProt P01579 24-161, looked up)
Interferon gamma: QDPYVKEAENLKKYFNAGHSDVADNGTLFLGILKNWKEESDRKIMQSQIVSFYFKLFKNFKDDQSIQKSVETIKEDMNVKFFNSNKKKRDDFEKLTNYSVTDLNVQRKAIHELIQVMAELSPAAKTGKRKRSQMLFRG
modifications: interferon gamma-1b
notes: study drug of the INSPIRE randomized clinical trial, compared to placebo
[4]
  Benefit compared to placebo at interim analysis: no benefit
